The values below come from BindingDB's records for doi:10.1021/acs.jmedchem.5b00570 (Academy of Sciences of The Czech Republic V.V.I., 2015).

SMILES strings stand for the structures.

Experiment [1] deals with Glutamate receptor ionotropic, NMDA 1/2C (Homo sapiens, UniProt Q05586+Q14957). Briefly: Inhibition of recombinant GluN1/GluN2C receptor (unknown origin) expressed in HEK293 cells assessed as inhibition of glutamate-evoked current by whole-cell voltage-clamp method.
Experiment [2] concerns the target Glutamate receptor ionotropic, NMDA 1/2B (Homo sapiens, UniProt Q05586+Q13224). Briefly: Inhibition of recombinant GluN1/GluN2B receptor (unknown origin) expressed in HEK293 cells assessed as inhibition of glutamate-evoked current by whole-cell voltage-clamp method.
The target in experiment [3] is Glutamate receptor ionotropic, NMDA 1/2A (Homo sapiens, UniProt Q12879+Q05586). The experiment in a line: Inhibition of recombinant GluN1/GluN2A receptor (unknown origin) expressed in HEK293 cells assessed as inhibition of glutamate-evoked current by whole-cell voltage-clamp method.
For experiment [4], the target named is Glutamate receptor ionotropic, NMDA 1/2D (Homo sapiens, UniProt Q05586+O15399). The experiment in a line: Inhibition of recombinant GluN1/GluN2D receptor (unknown origin) expressed in HEK293 cells assessed as inhibition of glutamate-evoked current by whole-cell voltage-clamp method.

Broadly, the IC50 is the concentration that inhibits the measured activity by half.

Glutamate receptor ionotropic, NMDA 1/2D, sequence (O15399 whole entry, other chains not shown): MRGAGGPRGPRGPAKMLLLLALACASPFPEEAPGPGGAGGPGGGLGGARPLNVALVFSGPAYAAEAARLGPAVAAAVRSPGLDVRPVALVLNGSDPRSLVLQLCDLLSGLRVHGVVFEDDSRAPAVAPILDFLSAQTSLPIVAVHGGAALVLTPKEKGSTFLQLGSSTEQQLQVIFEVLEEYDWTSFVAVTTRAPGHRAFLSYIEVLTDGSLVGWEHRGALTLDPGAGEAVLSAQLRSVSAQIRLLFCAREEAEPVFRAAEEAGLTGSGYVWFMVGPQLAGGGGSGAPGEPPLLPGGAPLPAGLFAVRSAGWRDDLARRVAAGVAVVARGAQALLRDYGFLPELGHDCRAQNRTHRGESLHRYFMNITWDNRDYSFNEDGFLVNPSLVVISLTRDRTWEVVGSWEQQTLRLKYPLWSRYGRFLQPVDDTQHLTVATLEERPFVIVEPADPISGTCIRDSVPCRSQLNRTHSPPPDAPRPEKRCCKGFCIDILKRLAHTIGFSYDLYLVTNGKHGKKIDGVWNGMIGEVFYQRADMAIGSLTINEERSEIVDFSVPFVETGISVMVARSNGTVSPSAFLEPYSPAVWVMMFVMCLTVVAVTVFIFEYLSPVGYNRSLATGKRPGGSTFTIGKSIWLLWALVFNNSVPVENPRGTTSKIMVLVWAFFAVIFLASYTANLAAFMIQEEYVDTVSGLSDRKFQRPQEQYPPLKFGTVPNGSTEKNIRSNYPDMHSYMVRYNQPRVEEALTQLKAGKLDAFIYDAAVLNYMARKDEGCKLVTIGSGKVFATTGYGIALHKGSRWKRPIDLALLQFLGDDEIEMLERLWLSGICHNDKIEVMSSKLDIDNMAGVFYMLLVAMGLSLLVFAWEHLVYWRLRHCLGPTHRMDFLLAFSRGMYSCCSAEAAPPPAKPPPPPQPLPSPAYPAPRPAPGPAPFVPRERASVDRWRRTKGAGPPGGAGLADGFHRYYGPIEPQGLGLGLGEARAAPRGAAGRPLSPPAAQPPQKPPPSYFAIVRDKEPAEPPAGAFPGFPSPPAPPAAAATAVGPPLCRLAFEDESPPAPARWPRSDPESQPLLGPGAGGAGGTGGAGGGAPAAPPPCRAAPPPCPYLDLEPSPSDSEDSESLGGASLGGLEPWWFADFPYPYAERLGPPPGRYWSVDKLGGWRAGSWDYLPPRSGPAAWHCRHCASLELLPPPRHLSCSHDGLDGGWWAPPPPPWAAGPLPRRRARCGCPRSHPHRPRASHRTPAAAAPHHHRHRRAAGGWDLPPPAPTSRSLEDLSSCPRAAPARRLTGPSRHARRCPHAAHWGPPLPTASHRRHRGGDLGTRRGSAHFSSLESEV
Glutamate receptor ionotropic, NMDA 1/2B, sequence (Q13224 whole entry, other chains not shown): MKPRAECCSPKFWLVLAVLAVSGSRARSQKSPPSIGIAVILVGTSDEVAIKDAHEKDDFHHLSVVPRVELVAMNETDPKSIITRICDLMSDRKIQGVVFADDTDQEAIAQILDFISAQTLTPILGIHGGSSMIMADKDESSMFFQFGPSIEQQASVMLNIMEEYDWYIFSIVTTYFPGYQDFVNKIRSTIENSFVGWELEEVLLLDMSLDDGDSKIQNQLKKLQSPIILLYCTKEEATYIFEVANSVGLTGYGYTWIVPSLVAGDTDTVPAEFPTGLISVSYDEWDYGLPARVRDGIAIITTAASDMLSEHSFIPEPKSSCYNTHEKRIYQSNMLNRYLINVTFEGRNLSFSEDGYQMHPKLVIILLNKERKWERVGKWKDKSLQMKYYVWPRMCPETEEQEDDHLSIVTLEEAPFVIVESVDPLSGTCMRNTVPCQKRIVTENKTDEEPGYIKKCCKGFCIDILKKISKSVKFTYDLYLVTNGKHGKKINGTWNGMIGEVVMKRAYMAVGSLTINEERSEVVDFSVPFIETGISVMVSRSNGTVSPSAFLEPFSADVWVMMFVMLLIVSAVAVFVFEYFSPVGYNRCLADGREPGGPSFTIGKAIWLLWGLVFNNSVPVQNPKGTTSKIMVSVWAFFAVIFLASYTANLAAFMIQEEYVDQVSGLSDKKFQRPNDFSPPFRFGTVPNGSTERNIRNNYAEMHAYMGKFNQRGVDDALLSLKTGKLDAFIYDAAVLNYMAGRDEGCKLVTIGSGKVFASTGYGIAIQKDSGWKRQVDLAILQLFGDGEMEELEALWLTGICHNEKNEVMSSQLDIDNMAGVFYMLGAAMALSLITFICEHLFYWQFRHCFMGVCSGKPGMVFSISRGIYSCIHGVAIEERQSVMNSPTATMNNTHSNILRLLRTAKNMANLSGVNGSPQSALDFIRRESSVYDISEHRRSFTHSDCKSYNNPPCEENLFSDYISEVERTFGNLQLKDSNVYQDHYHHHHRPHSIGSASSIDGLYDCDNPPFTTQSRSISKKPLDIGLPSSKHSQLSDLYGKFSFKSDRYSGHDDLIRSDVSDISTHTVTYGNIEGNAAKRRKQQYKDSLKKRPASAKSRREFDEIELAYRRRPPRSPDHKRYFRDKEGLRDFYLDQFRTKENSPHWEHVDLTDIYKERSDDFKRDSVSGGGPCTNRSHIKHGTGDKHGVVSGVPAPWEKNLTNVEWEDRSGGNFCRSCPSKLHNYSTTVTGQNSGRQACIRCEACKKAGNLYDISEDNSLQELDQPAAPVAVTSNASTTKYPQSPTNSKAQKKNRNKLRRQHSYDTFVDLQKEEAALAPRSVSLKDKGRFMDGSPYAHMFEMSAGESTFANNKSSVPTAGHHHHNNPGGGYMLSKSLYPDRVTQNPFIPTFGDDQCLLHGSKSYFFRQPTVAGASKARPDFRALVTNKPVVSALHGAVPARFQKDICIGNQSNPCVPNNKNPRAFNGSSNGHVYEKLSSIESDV
Glutamate receptor ionotropic, NMDA 1/2A, sequence (Q12879 whole entry, other chains not shown): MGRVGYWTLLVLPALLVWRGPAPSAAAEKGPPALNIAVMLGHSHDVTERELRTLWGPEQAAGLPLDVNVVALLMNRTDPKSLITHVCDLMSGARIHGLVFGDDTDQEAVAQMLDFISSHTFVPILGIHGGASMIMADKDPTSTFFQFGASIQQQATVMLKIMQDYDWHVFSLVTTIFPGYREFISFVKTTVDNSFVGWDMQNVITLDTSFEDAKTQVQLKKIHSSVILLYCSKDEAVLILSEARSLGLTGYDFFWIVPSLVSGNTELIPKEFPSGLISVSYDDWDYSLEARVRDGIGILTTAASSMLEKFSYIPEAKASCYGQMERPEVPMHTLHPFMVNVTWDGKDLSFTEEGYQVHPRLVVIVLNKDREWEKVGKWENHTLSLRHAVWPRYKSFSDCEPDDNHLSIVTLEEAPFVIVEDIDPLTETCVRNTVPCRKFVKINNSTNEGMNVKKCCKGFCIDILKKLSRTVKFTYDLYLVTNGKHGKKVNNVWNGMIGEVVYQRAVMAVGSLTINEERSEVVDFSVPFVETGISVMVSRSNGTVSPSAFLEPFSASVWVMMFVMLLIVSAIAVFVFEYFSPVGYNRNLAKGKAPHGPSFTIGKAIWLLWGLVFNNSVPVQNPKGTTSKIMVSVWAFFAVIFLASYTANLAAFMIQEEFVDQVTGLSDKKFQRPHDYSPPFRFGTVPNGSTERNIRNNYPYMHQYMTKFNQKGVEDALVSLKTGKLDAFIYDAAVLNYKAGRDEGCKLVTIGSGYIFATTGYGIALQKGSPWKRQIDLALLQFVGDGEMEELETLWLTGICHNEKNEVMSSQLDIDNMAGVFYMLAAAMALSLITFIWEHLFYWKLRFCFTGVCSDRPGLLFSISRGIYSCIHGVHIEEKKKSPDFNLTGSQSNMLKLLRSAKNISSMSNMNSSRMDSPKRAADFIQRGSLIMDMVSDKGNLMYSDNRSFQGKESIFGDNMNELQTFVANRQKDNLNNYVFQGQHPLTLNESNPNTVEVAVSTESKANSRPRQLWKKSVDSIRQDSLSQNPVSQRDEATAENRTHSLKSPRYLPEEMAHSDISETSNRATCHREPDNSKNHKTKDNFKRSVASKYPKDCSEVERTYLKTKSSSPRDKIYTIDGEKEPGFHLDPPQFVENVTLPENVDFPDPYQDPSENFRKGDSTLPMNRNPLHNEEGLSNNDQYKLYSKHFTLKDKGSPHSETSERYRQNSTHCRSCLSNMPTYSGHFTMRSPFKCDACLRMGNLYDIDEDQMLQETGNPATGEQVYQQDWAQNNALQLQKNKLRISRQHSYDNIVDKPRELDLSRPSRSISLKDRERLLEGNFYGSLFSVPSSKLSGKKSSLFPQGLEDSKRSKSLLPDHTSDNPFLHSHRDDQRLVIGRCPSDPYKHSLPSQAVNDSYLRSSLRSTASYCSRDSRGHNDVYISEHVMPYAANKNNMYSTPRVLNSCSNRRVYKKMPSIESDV

For `C[C@H]1CC[C@H]2[C@@H]3CC[C@@H]4C[C@H](OS(=O)(=O)O)CC[C@]4(C)[C@H]3CC[C@]12C`, the IC50 in experiment [1] was found to be 400 nM; in experiment [2], 600 nM; in experiment [3], 600 nM; in experiment [4], 500 nM.
